pIC50: −log10 of the molar value.
What was measured:
KAT5 = biological target: T1, KAT5 (Homo sapiens, UniProt Q92993); test: KAT5 enzyme inhibition assay (SAMDI mass spectrometry); assay type: biochemical; conditions: His-TEV-FL KAT5-Flag enzyme construct
T1 construct: His-TEV tag (N, cleaved yes); made in house

KAT6A = biological target: T2, KAT6A (Homo sapiens, UniProt Q92794); test: KAT6A enzyme inhibition assay (SAMDI mass spectrometry); assay type: biochemical; conditions: His-TEV-KAT6A 501-784 enzyme construct
T2 construct: His-TEV tag (N, cleaved yes); made in house
T2 sequence (Q92794 with tags, fused parts or gaps): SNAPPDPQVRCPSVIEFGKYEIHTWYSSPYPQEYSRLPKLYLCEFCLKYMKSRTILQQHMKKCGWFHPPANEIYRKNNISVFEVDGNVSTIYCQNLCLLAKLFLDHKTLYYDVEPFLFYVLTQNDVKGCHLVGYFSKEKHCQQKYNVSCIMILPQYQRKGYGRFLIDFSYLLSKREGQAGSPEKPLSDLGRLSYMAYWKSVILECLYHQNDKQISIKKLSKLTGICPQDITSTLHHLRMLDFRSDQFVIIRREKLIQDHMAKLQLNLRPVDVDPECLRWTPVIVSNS

T1 sequence (Q92993 with tags, fused parts or gaps): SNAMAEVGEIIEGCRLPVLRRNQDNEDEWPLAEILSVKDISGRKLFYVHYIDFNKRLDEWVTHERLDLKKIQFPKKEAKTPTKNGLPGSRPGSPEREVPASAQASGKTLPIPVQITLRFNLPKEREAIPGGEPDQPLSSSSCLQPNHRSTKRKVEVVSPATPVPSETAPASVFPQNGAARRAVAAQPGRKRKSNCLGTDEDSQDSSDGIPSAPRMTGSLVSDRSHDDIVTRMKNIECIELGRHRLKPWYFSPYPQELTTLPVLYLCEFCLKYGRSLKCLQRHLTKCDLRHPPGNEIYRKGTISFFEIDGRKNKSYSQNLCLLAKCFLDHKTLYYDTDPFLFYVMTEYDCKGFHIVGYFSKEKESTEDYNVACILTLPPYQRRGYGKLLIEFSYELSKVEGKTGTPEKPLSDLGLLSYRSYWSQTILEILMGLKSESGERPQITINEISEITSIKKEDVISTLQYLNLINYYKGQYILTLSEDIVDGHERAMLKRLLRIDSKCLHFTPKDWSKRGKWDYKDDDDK

pIC50 (KAT5) | pIC50 (KAT6A) | Compound
< 4.00 | < 4.00 | Cc1cc(-c2ccccc2)cc(C(=O)Nc2cn[nH]c2)c1F [Compound I-213]
≥ 5.00 | ≥ 5.00 | Cc1cc(-c2ccccc2)cc(C(=O)NNS(=O)(=O)c2cccc(F)c2)c1F [Compound I-214]
< 4.00 | 4.30 to 5.00 | Cc1cc(-c2ccccc2)cc(C(=O)N(C)NS(=O)(=O)c2ccccc2)c1F [Compound I-215]
≥ 5.00 | ≥ 5.00 | CCc1cc(-c2ccccc2)cc(C(=O)NNS(=O)(=O)c2ccccc2)c1F [Compound I-216]
≥ 5.00 | ≥ 5.00 | Cc1cc(-c2ccccc2)cc(C(=O)NNS(=O)(=O)c2ccc(Cl)cc2)c1F [Compound I-217]
≥ 5.00 | ≥ 5.00 | CNC(=O)c1cccc(S(=O)(=O)NNC(=O)c2cc(-c3ccccc3)cc(C)c2F)c1 [Compound I-219]
≥ 5.00 | ≥ 5.00 | O=C(NNS(=O)(=O)c1ccccc1)c1cc(-c2ccccc2)cc(Cl)c1F [Compound I-220]
4.30 to 5.00 | ≥ 5.00 | CCc1cccc(S(=O)(=O)NNC(=O)c2cc(-c3ccccc3)cc(C)c2F)c1 [Compound I-221]
≥ 5.00 | ≥ 5.00 | Cc1cc(-c2ccccc2)c(F)c(C(=O)NNS(=O)(=O)c2ccccc2)c1F [Compound I-223]
≥ 5.00 | ≥ 5.00 | Cc1cc(-c2ccccc2)cc(C(=O)NNS(=O)(=O)CC2CCN(C(=O)OC(C)(C)C)CC2)c1F [Compound I-224]
≥ 5.00 | ≥ 5.00 | Cc1cc(-c2ccccc2)cc(C(=O)NNS(=O)(=O)CC2CCCCC2)c1F [Compound I-227]
< 4.00 | < 4.00 | Cc1c(-c2ccccc2)ccc(F)c1C(=O)NNS(=O)(=O)C(C)C [Compound I-231]
≥ 5.00 | ≥ 5.00 | COc1cccc(S(=O)(=O)NNC(=O)c2cc(-c3ccccc3)cc(C)c2F)c1 [Compound I-232]
≥ 5.00 | ≥ 5.00 | Cc1cc(-c2ccccc2)cc(C(=O)NNS(=O)(=O)c2cccc(O)c2)c1F [Compound I-235]
≥ 5.00 | ≥ 5.00 | Cc1cc(-c2ccccc2)cc(C(=O)NNS(=O)(=O)c2ccc(C(N)=O)cc2)c1F [Compound I-239]
< 4.00 | 4.30 to 5.00 | Cc1cc(-c2ccccc2)cc(C(=O)NN(C)S(=O)(=O)c2ccccc2)c1F [Compound I-242]
< 4.00 | < 4.00 | Cc1c(-c2ccccc2)ccc(F)c1C(=O)NNS(=O)(=O)C1CCC1 [Compound I-243]
4.30 to 5.00 | ≥ 5.00 | CNC(=O)c1ccc(S(=O)(=O)NNC(=O)c2cc(-c3ccccc3)cc(C)c2F)cc1 [Compound I-244]
< 4.00 | < 4.00 | Cc1c(-c2ccccc2)ccc(F)c1C(=O)NNS(=O)(=O)C1CCCC1 [Compound I-249]

pIC50 (KAT5) | pIC50 (KAT6A) | Compound
≥ 5.00 | ≥ 5.00 | O=C(NNS(=O)(=O)c1ccccc1)c1cc(-c2ccccc2)cc(F)c1F [Compound I-250]
≥ 5.00 | ≥ 5.00 | Cc1cc(-c2ccccc2)cc(C(=O)NNS(=O)(=O)c2cccc(C(=O)N(C)C)c2)c1F [Compound I-255]
4.00 to 4.30 | ≥ 5.00 | Cc1cc(-c2ccccc2)cc(C(=O)NNS(=O)(=O)c2cccc(C(=O)O)c2)c1F [Compound I-256]
< 4.00 | < 4.00 | Cc1cc(-c2ccccc2)cc(C(=O)N[C@@H](C#N)C2CCCCC2)c1F [Compound I-257]
4.00 to 4.30 | 4.00 to 4.30 | Cc1c(-c2ccccc2)ccc(F)c1C(=O)NNS(=O)(=O)CC1CCCCC1 [Compound I-258]
≥ 5.00 | ≥ 5.00 | Cc1cc(-c2ccccc2)cc(C(=O)NNS(=O)(=O)c2cccc(CO)c2)c1F [Compound I-261]
≥ 5.00 | ≥ 5.00 | Cc1cc(-c2ccccc2)cc(C(=O)NNS(=O)(=O)c2ccccc2Cl)c1F [Compound I-263]
≥ 5.00 | ≥ 5.00 | Cc1cc(-c2ccccc2)cc(C(=O)NNS(=O)(=O)CC2CCOCC2)c1F [Compound I-267]
≥ 5.00 | 4.30 to 5.00 | Cc1cc(-c2ccccc2F)cc(C(=O)NNS(=O)(=O)CC2CCCCC2)c1F [Compound I-269]
≥ 5.00 | 4.30 to 5.00 | COCCOc1cccc(-c2cc(C)c(F)c(C(=O)NNS(=O)(=O)CC3CCCCC3)c2)c1 [Compound I-270]
≥ 5.00 | ≥ 5.00 | Cc1cc(-c2ccccc2F)cc(C(=O)NNS(=O)(=O)c2ccccc2)c1F [Compound I-271]
4.30 to 5.00 | 4.00 to 4.30 | COCCOc1cccc(-c2cc(C)c(F)c(C(=O)NNS(=O)(=O)C3CCCCC3)c2)c1 [Compound I-272]
≥ 5.00 | ≥ 5.00 | Cc1cc(-c2cccc(F)c2)cc(C(=O)NNS(=O)(=O)CC2CCCN(C(=O)C3CCC3)C2)c1F (centres unmarked) [Compound I-274]
< 4.00 | < 4.00 | O=C(NNS(=O)(=O)C1CCCCC1)c1c(Cl)ccc(-c2ccccc2)c1Cl [Compound I-275]
≥ 5.00 | 4.30 to 5.00 | Cc1cc(Cl)cc(C(=O)NNS(=O)(=O)CC2CCCCC2)c1F [Compound I-276]
4.30 to 5.00 | 4.30 to 5.00 | COCCN1CCC(C(C)S(=O)(=O)NNC(=O)c2cc(-c3ccccc3)cc(C)c2F)CC1 (centres unmarked) [Compound I-277]
4.00 to 4.30 | < 4.00 | Cc1cc(-c2cccc(F)c2)cc(C(=O)NNS(=O)(=O)CC2CCCNC2)c1F (centres unmarked) [Compound I-278]
4.30 to 5.00 | ≥ 5.00 | COCCOc1cccc(-c2cc(C)c(F)c(C(=O)NNS(=O)(=O)c3ccccc3)c2)c1 [Compound I-279]
≥ 5.00 | ≥ 5.00 | CCC(=O)N1CCCC(CS(=O)(=O)NNC(=O)c2cc(-c3ccccc3)cc(C)c2F)C1 (centres unmarked) [Compound I-280]

Further lines, the compound ahead of its results:

Compound | pIC50 (KAT5) | pIC50 (KAT6A)
O=C(NS(=O)(=O)Nc1ccccc1)c1c(F)ccc(-c2ccccc2)c1F [Compound I-212] | < 4.00 | 4.00 to 4.30
COc1ccc(Cn2cnc(-c3ccc(F)c(C(=O)NNS(=O)(=O)c4ccccc4)c3F)c2)cc1 [Compound I-222] | 4.00 to 4.30 | ≥ 5.00
Cc1c(-c2ccccc2)ccc(F)c1C(=O)NNS(=O)(=O)c1ccccc1Cl [Compound I-225] | 4.00 to 4.30 | 4.30 to 5.00
Cc1cccc(S(=O)(=O)NNC(=O)c2cccc(-c3ccccc3)c2F)c1 [Compound I-226] | < 4.00 | ≥ 5.00
CCS(=O)(=O)NNC(=O)c1c(F)ccc(-c2ccccc2)c1C [Compound I-228] | < 4.00 | < 4.00
Cc1cccc(-c2cccc(C(=O)NNS(=O)(=O)c3ccccc3)c2F)c1 [Compound I-229] | 4.30 to 5.00 | 4.30 to 5.00
O=C(NNS(=O)(=O)c1ccccc1)c1cnn(Cc2ccccc2)c1 [Compound I-230] | < 4.00 | < 4.00
O=C(NNS(=O)(=O)c1ccccc1)c1c(F)ccc(-c2ccccc2)c1F [Compound I-233] | 4.30 to 5.00 | ≥ 5.00
O=C(NNS(=O)(=O)c1ccccc1)c1cccc(-c2ccccc2)c1F [Compound I-234] | < 4.00 | ≥ 5.00
O=C(NNS(=O)(=O)c1ccccc1)c1c(F)ccc2ccccc12 [Compound I-236] | < 4.00 | < 4.00
COc1ccccc1S(=O)(=O)NNC(=O)c1c(F)ccc(-c2ccccc2)c1C [Compound I-237] | < 4.00 | 4.00 to 4.30
Cc1c(-c2ccccc2)ccc(F)c1C(=O)NNS(=O)(=O)c1ccc2ccccc2c1 [Compound I-240] | 4.30 to 5.00 | 4.30 to 5.00
Cc1c(-c2ccccc2)ccc(F)c1C(=O)NNS(=O)(=O)c1ccc(Cl)cc1 [Compound I-241] | 4.00 to 4.30 | 4.30 to 5.00
O=S(=O)(NNCc1ccccc1F)c1ccccc1 [Compound I-245] | < 4.00 | < 4.00
O=C(NNS(=O)(=O)c1ccc2ccccc2c1)c1cccc(-c2ccccc2)c1 [Compound I-246] | 4.00 to 4.30 | ≥ 5.00
COc1ccc(Cn2ncc3c(C(=O)NNS(=O)(=O)c4ccccc4)cc(-c4ccccc4)cc32)cc1 [Compound I-247] | 4.00 to 4.30 | 4.30 to 5.00
COc1ccc(Cn2cnc3c(C(=O)NNS(=O)(=O)c4ccccc4)cc(-c4ccccc4)cc32)cc1 [Compound I-248] | 4.00 to 4.30 | 4.30 to 5.00
Cc1c(-c2ccccc2)ccc(F)c1C(=O)NNS(=O)(=O)c1ccccc1 [Compound I-251] | 4.00 to 4.30 | ≥ 5.00
O=C(NNS(=O)(=O)c1ccccc1)c1ncccc1F [Compound I-252] | < 4.00 | 4.00 to 4.30
O=C(NNS(=O)(=O)c1ccccc1)c1cc(-c2ccccc2)ccc1F [Compound I-253] | 4.00 to 4.30 | 4.30 to 5.00
O=C(NNS(=O)(=O)c1ccccc1)N1CCCCC1 [Compound I-254] | < 4.00 | < 4.00
Cn1cnc(-c2ccc(F)c(C(=O)NNS(=O)(=O)c3ccccc3)c2F)c1 [Compound I-259] | 4.30 to 5.00 | ≥ 5.00
CC(C)C(Cc1ccccc1)C(=O)NNS(=O)(=O)c1ccccc1 (centres unmarked) [Compound I-260] | < 4.00 | < 4.00
O=C(NNS(=O)(=O)c1ccccc1)c1cc2ccccc2cc1F [Compound I-262] | 4.00 to 4.30 | ≥ 5.00
O=C(NNS(=O)(=O)c1ccccc1)c1c(F)ccc(-c2ncc[nH]2)c1F [Compound I-264] | < 4.00 | 4.00 to 4.30
CC(C)C(Cc1ccccc1)CS(=O)(=O)NNC(=O)c1ccccc1 (centres unmarked) [Compound I-265] | < 4.00 | < 4.00
Cc1cccc(F)c1C(=O)NNS(=O)(=O)CC(Cc1ccccc1)C(C)C (centres unmarked) [Compound I-266] | < 4.00 | < 4.00
Cc1c(-c2ccccc2)ccc(F)c1C(=O)NNS(=O)(=O)CC(Cc1ccccc1)C(C)C (centres unmarked) [Compound I-268] | 4.30 to 5.00 | 4.30 to 5.00
Cc1cccc(-c2ccc(F)c(C(=O)NNS(=O)(=O)c3ccccc3)c2C)c1 [Compound I-273] | < 4.00 | 4.00 to 4.30

Source: patent US20220267260A1, “COMPOUNDS CONTAINING A SULFONIC GROUP AS KAT INHIBITORS” (Epizyme, Inc., priority 2016, published 2022)
